Common to all, as to type: cell-based
Assay [1] relates to MRC-5 cell line. In words: Cell viability assay for MRC-5 cell line (EZ-Cytox). As to conditions: Homo sapiens, MRC5, 120 h; MRC-5 normal cell line, 5 days, 10000 nM to 1.52 nM; read-out: Activity: IC50 value, cell viability, MRC-5 cell line (Exemplary Compounds). The method, then:
4. Cell Viability Assay for MRC-5 Cell Line
(1) Culture of MRC-5 Cell Line
The MRC-5 cell line was purchased from KCLB. Passage of cultured cells was maintained within P15.
(2) Treatment of Compounds of the Present Invention
Then, it was cultured in 37° C. CO2 incubator (Thermo Fisher Scientific) for 5 days.
(3) Cytotoxicity Experiment
CO2 incubator for 4 hours.

Assay [2] relates to NCI-H526 cell line. In words: Cell viability assay for NCI-H526 cell line (EZ-Cytox). The note with it: Homo sapiens, NCI-H526, 120 h; H526 cells, 5 days, 3000 nM to 0.46 nM. The method, then: (§1) 3. Cell Viability Assay for NCI-H69, NCI-H526 Cell Lines
(§2) (1) Culture of NCI-H69, NCI-H526 Cell Lines
(§3) The NCI-H69 (hereafter H69) and NCI-H526 (hereafter H526) cell lines were purchased from KCLB.
(§4) (2) Treatment of Compounds of the Present Invention and Method of Cell Viability Assay
(§5) After treating the compound to each well to make the total volume of 200 μl, it was cultured in a CO2 incubator (Thermo Fisher Scientific) for 5 days. […] The absorbance of the completely cultured sample was measured by setting the wavelength of a plate reader (BMG Labtech) to […], and was measured after shaking for 3 minutes in a plate reader before measurement.
(§6) The results of cell viability for H526 and H69 cell line are shown in Table 3 and Table 4, respectively.
(§7) In Table 3 and Table 4, Activity represents IC50 value of each Exemplary Compound treatment group to H526 and H69 cell line, respectively (A: <30 nM, B: <50 nM, C: <100 nM, D: <200 nM, E: <400 nM).

In assay [3] the target is T1, PLK1 (Homo sapiens, UniProt P53350).
T1 construct: endogenous in cells; host or cells: HeLa LgBit (Plk1-HiBit KI): HeLa stably expressing LgBit, with a CRISPR/Cas9 knock-in of HiBit at the endogenous PLK1 locus
T1 sequence (P53350 whole entry): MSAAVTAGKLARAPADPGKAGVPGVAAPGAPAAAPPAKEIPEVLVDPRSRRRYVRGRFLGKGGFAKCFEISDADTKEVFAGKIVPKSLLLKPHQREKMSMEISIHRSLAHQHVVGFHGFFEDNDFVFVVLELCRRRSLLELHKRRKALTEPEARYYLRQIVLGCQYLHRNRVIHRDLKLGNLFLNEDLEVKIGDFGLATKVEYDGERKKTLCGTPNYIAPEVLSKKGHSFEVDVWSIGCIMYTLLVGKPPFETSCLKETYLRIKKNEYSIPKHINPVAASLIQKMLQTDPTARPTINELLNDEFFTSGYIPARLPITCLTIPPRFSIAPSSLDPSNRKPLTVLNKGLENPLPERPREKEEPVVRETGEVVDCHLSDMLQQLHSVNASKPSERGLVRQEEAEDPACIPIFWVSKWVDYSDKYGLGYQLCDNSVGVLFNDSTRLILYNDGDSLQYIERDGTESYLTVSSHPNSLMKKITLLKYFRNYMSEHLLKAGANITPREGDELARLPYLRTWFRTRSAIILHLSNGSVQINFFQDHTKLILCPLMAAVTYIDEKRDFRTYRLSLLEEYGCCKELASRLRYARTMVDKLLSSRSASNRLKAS
The assay is described as follows: Luciferase assay for PLK1 in HeLa LgBit (Plk1-HiBit KI) cell line. The note with it: 300 nM compound, luminescence after 9 hours. The method, then: 2. Luciferase Assay for PLK1
(1) Preparation and Culture of HeLa LgBit (Plk1-HiBit KI) Cell Line
A HeLa cell line in which the LgBit vector was transfected and expressed stably was prepared. Then, after constructing gRNA and donor to express the HiBit amino acid sequence behind the C-terminal of the PLK1 gene, which was inherent in the cell, it was inserted into the cell together with a vector capable of expressing CRISPR/Cas9. Only the cells in which the insertion was completed and knock-in had progressed were selected, sub-cultured and used.
For cell culture, DMEM (Gibco), FBS (Gibco), PS (Gibco), […] cell culture dish (SPL), […] cell culture dish (SPL), 96-well culture plate (SPL), PBS pH 7.4 (Gibco), TrypLE™ Express (Gibco), Cell counter (Thermo Fisher Scientific) and 0.4% Trypan Blue Solution (DYNEBIO) were used.
(2) Treatment of Compounds of the Present Invention and Method of Luciferase Assay
In the case of HeLa LgBit (Plk1-HiBit KI), the compounds were treated after being released after thymidine block, and the process was as follows. Thymidine (Sigma-Aldrich) was completely dissolved in ddH2O and used in the experiment. For thymidine block, the products were treated with 2 mM of thymidine and then incubated for 24 hours. For release and chemical treatment, the medium was suctioned and washed with 1×PBS. TrypLE™ (Gibco) was added and incubated in 37° C. CO2 incubator (Thermo Fisher Scientific) for 5 mins. Cells neutralized by adding complete media were counted through a counter. For each well of a 96-well culture plate (SPL), 3.3×10^4 cells and a total medium volume of 150 μl were seeded and incubated in a CO2 incubator.
Each cell line was incubated in a CO2 incubator for 18 hours, and Endurazine (Promega, Cat. No. N257B) was added to each well to make up 4% of the total volume. After adding compounds of Examples in a 96-well white plate (SPL) to a concentration of 300 nM, the wavelength of the plate reader (BMG Labtech, CLARIOstar Plus) was set to 470-480 nm, and then the luminescence was tracked in real time.
In Table 2, Activity represents the ratio of the luminescence value of each Exemplary Compound treatment group to DMSO treatment group (+++: <0.3, ++: <0.5, +: <0.7).

In assay [4] the test system is NCI-H69 cell line. The assay is described as follows: Cell viability assay for NCI-H69 cell line (EZ-Cytox). As to conditions: Homo sapiens, NCI-H69, 120 h; H69 cells, 5 days, 3000 nM to 0.46 nM. The method, then: as §1, §2, §3, §4, §5, §6, §7

On to `COc1cc(C(=O)NC2CCC(N(C)CC3CCN(c4cnc(C5CCC(=O)NC5=O)cc4C)CC3)CC2)ccc1Nc1ncc2c(n1)N(C1CCCC1)CC(F)(F)C(=O)N2C` (stereo not drawn) [Compound 14, 4-((9-cyclopentyl-7,7-difluoro-5-methyl-6-oxo-6,7,8,9-tetrahydro-5H-pyrimido[4,5-b][1,4]diazepin-2-yl)amino)-N-((1r,4r)-4-(((1-(6-(2,6-dioxopiperidin-3-yl)-4-methylpyridin-3-yl)piperidin-4-yl)methyl)(methyl)amino)cyclohexyl)-3-methoxybenzamide], for which the IC50 was > 10 µM in assay [1], < 0.03 µM in assay [2] and < 0.03 µM in assay [4]. Also, in assay [3], the “Activity: ratio of the luminescence value of compound treatment group to DMSO treatment group” value (“Activity: ratio” below) was “+++ (+++: <0.3)”.
For `COc1cc(C(=O)NC2CCC(N(C)CC3CCN(c4cnc(C5CCC(=O)NC5=O)cc4C)CC3)CC2)ccc1Nc1ncc2c(n1)N(C(C)C)CC(F)(F)C(=O)N2C` (stereo not drawn) [Compound 15, 4-((7,7-difluoro-9-isopropyl-5-methyl-6-oxo-6,7,8,9-tetrahydro-5H-pyrimido[4,5-b][1,4]diazepin-2-yl)amino)-N-((1r,4r)-4-(((1-(6-(2,6-dioxopiperidin-3-yl)-4-methylpyridin-3-yl)piperidin-4-yl)methyl)(methyl)amino)cyclohexyl)-3-methoxybenzamide], the 50% inhibitory concentration (IC50) was > 10 µM in assay [1], < 0.03 µM in assay [2] and < 0.03 µM in assay [4]. In addition, the “Activity: ratio” value in assay [3] is “+++ (+++: <0.3)”.
Consider `COc1cc(C(=O)N[C@H]2CC[C@H](CN(C)C3CCN(c4cnc(C5CCC(=O)NC5=O)cc4C)CC3)CC2)ccc1Nc1ncc2c(n1)N(C(C)C)CC(F)(F)C(=O)N2C` (stereo partly drawn) [Compound 16, 4-((7,7-difluoro-9-isopropyl-5-methyl-6-oxo-6,7,8,9-tetrahydro-5H-pyrimido[4,5-b][1,4]diazepin-2-yl)amino)-N-((1r,4r)-4-(((1-(6-(2,6-dioxopiperidin-3-yl)-4-methylpyridin-3-yl)piperidin-4-yl)(methyl)amino)methyl)cyclohexyl)-3-methoxybenzamide], for which the IC50 is > 10 µM in assay [1], < 0.03 µM in assay [2] and < 0.03 µM in assay [4]. For the same compound, the “Activity: ratio” value in assay [3] is given as “+++ (+++: <0.3)”.
For `COc1cc(C(=O)NC2CC3(CCN(CC4CCN(c5cnc(C6CCC(=O)NC6=O)cc5C)CC4)CC3)C2)ccc1Nc1ncc2c(n1)N(C1CCCC1)CC(F)(F)C(=O)N2C` (stereo not drawn) [Compound 17, 4-((9-cyclopentyl-7,7-difluoro-5-methyl-6-oxo-6,7,8,9-tetrahydro-5H-pyrimido[4,5-b][1,4]diazepin-2-yl)amino)-N-(7-((1-(6-(2,6-dioxopiperidin-3-yl)-4-methylpyridin-3-yl)piperidin-4-yl)methyl)-7-azaspiro[3.5]nonan-2-yl)-3-methoxybenzamide], the values for the IC50 in assay [1], in assay [2] and in assay [4] were > 10 µM, < 0.03 µM and < 0.03 µM, respectively. For the same compound, the “Activity: ratio” value in assay [3] is reported as “+++ (+++: <0.3)”.
Turning to `COc1cc(C(=O)NC2CC3(CCN(CC4CCN(c5ccc(C6CCC(=O)NC6=O)nc5C)CC4)CC3)C2)ccc1Nc1ncc2c(n1)N(C1CCCC1)CC(F)(F)C(=O)N2C` (stereo not drawn) [Compound 18, 4-((9-cyclopentyl-7,7-difluoro-5-methyl-6-oxo-6,7,8,9-tetrahydro-5H-pyrimido[4,5-b][1,4]diazepin-2-yl)amino)-N-(7-((1-(6-(2,6-dioxopiperidin-3-yl)-2-methylpyridin-3-yl)piperidin-4-yl)methyl)-7-azaspiro[3.5]nonan-2-yl)-3-methoxybenzamide], the figures for the IC50 in assay [1], in assay [2] and in assay [4] were > 10 µM, < 0.03 µM and < 0.03 µM, respectively. Besides, the “Activity: ratio” value in assay [3] was “++ (++: <0.5)”.
In the case of `COc1cc(C(=O)NC2CC3(CCN(CC4CCN(c5cnc(C6CCC(=O)NC6=O)cc5C)CC4)CC3)C2)ccc1Nc1ncc2c(n1)N(C(C)C)CC(F)(F)C(=O)N2C` (stereo not drawn) [Compound 19, 4-((7,7-difluoro-9-isopropyl-5-methyl-6-oxo-6,7,8,9-tetrahydro-5H-pyrimido[4,5-b][1,4]diazepin-2-yl)amino)-N-(7-((1-(6-(2,6-dioxopiperidin-3-yl)-4-methylpyridin-3-yl)piperidin-4-yl)methyl)-7-azaspiro[3.5]nonan-2-yl)-3-methoxybenzamide], the IC50 in assay [1] was > 10 µM; in assay [2], < 0.03 µM; in assay [4] it was < 0.03 µM. Further, the “Activity: ratio” value in assay [3] was “++ (++: <0.5)”.
Consider `COc1cc(C(=O)NC2CCC(N(C)CC3CCN(c4cnc(C5CCC(=O)NC5=O)cc4F)CC3)CC2)ccc1Nc1ncc2c(n1)N(C1CCCC1)CC(F)(F)C(=O)N2C` (stereo not drawn) [Compound 20, 4-((9-cyclopentyl-7,7-difluoro-5-methyl-6-oxo-6,7,8,9-tetrahydro-5H-pyrimido[4,5-b][1,4]diazepin-2-yl)amino)-N-((1r,4r)-4-(((1-(6-(2,6-dioxopiperidin-3-yl)-4-fluoropyridin-3-yl)piperidin-4-yl)methyl)(methyl)amino)cyclohexyl)-3-methoxybenzamide], for which the concentration for half-maximal inhibition (IC50) is > 10 µM in assay [1], < 0.03 µM in assay [2] and < 0.03 µM in assay [4]. Besides, in assay [3], the “Activity: ratio” value was “+++ (+++: <0.3)”.
On to `COc1cc(C(=O)NN2CCC(CCN3CCN(c4cnc(C5CCC(=O)NC5=O)cc4F)CC3)CC2)ccc1Nc1ncc2c(n1)N(C(C)C)CC(F)(F)C(=O)N2C` (stereo not drawn) [Compound 21, 4-((7,7-difluoro-9-isopropyl-5-methyl-6-oxo-6,7,8,9-tetrahydro-5H-pyrimido[4,5-b][1,4]diazepin-2-yl)amino)-N-(4-(2-(4-(6-(2,6-dioxopiperidin-3-yl)-4-fluoropyridin-3-yl)piperazin-1-yl)ethyl)piperidin-1-yl)-3-methoxybenzamide], for which the figures for the IC50 in assay [1], in assay [2] and in assay [4] were > 10 µM, < 0.03 µM and < 0.03 µM, respectively. The “Activity: ratio” value in assay [3] was “+++ (+++: <0.3)”.
In the case of `COc1cc(C(=O)N[C@H]2C3CN(CC4CCN(c5ccc(NC6CCC(=O)NC6=O)cc5)CC4)C[C@@H]32)ccc1Nc1ncc2c(n1)N(C(C)C)CC(F)(F)C(=O)N2C` (stereo partly drawn) [Compound 22, 4-((7,7-difluoro-9-isopropyl-5-methyl-6-oxo-6,7,8,9-tetrahydro-5H-pyrimido[4,5-b][1,4]diazepin-2-yl)amino)-N-((1R,5S,6s)-3-((1-(4-((2,6-dioxopiperidin-3-yl)amino)phenyl)piperidin-4-yl)methyl)-3-azabicyclo[3.1.0]hexan-6-yl)-3-methoxybenzamide], the IC50 in assay [1] was > 10 µM; in assay [2] it was < 0.05 µM; in assay [4], < 0.05 µM. Also, the “Activity: ratio” value in assay [3] was “+++ (+++: <0.3)”.

These data come from patent publication US20260273072A1, “NOVEL PLK1 DEGRADATION INDUCING COMPOUND” (UPPTHERA, INC., priority 2023, published 2026).
